Consider twelve cell lines from the supplement of paper PMC10307832.

What all share (assay): relative viability (nuclei count vs DMSO), 5 days (fraction); higher = more cells survive
Compound in the test “IDH-C35 + Alpelisib”: Cc1ccccc1C(C(=O)NC1CCCCC1)N(C(=O)Cn1ccnc1C)c1cccc(F)c1 [IDH-C35] + Cc1nc(NC(=O)N2CCC[C@H]2C(N)=O)sc1-c1ccnc(C(C)(C)C(F)(F)F)c1 [Alpelisib] (partner 2 µM)
In outline:
(§1)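 The day after seeding in 1536-well plates, lung cancer cell lines were treated by pin tool with a single drug, or with a fixed anchor-drug dose together with five library-drug doses (not always all listed) in √10 steps. After 5 days, a combined fix-and-stain solution (final 0.05% Triton X-100, 1% formaldehyde, 1 ug/ml Hoechst) was added. Nuclei counted on 4× images gave relative viability as treated counts over vehicle counts, reported as the median of duplicate plates.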

Compound in test [1]: CC1=C(C(=NN1)C)CC2=C(C3=C(S2)N(C(=O)N(C3=O)C)CC(C)C)C(=O)N4C[C@@H](CO4)O + Nc1ncn([C@H]2C[C@H](O)[C@@H](CO)O2)c(=O)n1 [Decitabine] (partner 2 µM)
Put shortly:
as §1

Compound in test [2]: CC1=C(C(=NN1)C)CC2=C(C3=C(S2)N(C(=O)N(C3=O)C)CC(C)C)C(=O)N4C[C@@H](CO4)O + O=C(CCCCCCC(=O)Nc1ccccc1)NO [Vorinostat] (partner 1 µM)
In outline: as §1

Compound in the test “IDH-C35 + Lapatinib”: Cc1ccccc1C(C(=O)NC1CCCCC1)N(C(=O)Cn1ccnc1C)c1cccc(F)c1 [IDH-C35] + CS(=O)(=O)CCNCc1ccc(-c2ccc3ncnc(Nc4ccc(OCc5cccc(F)c5)c(Cl)c4)c3c2)o1 [Lapatinib] (partner 2 µM)
Put shortly: as §1

Turning to LCLC-103H, the relative viability with IDH-C35 + Alpelisib (first compound 0.08 µM) came out at 1.05; in the test with IDH-C35 + Alpelisib (first compound 0.253 µM), 0.979; with IDH-C35 + Alpelisib (first compound 0.8 µM) it was 0.918; with IDH-C35 + Alpelisib (first compound 2.53 µM) it was 0.963; with IDH-C35 + Alpelisib (first compound 8 µM) it was 1.09; in test [1] (first compound 0.0025 µM), 0.753. The relative viability in test [1] (first compound 0.007906 µM) worked out at 0.746; in test [1] (first compound 0.025 µM), 0.766; in test [1] (first compound 0.07906 µM) it was 0.644; in test [1] (first compound 0.25 µM) it was 0.701; in test [2] (first compound 0.0025 µM), 0.871; in test [2] (first compound 0.007906 µM), 0.896. Also, the values for the relative viability in test [2] (first compound 0.025 µM), in test [2] (first compound 0.07906 µM) and in test [2] (first compound 0.25 µM) were 0.792, 0.772 and 0.689, respectively.

As for NCI-H441, the relative viability with IDH-C35 + Alpelisib (first compound 0.08 µM) was 0.649; in the test with IDH-C35 + Alpelisib (first compound 0.8 µM), 0.688; in the test with IDH-C35 + Alpelisib (first compound 2.53 µM), 0.684; with IDH-C35 + Alpelisib (first compound 8 µM), 0.754; in test [1] (first compound 0.0025 µM), 0.215; in test [1] (first compound 0.007906 µM), 0.255. Besides, the relative viability was 0.298 in test [1] (first compound 0.025 µM); 0.267 in test [1] (first compound 0.07906 µM); 0.272 in test [1] (first compound 0.25 µM); 0.959 in test [2] (first compound 0.0025 µM); 0.774 in test [2] (first compound 0.007906 µM); 0.716 in test [2] (first compound 0.025 µM). Besides, the figures for the relative viability in test [2] (first compound 0.07906 µM) and in test [2] (first compound 0.25 µM) were 0.696 and 1.12, respectively.

On to NCI-H522, for which the relative viability in test [1] (first compound 0.0025 µM) stood at 0.658; in test [1] (first compound 0.007906 µM), 0.655; in test [1] (first compound 0.025 µM) it was 0.472; in test [1] (first compound 0.07906 µM), 0.498; in test [1] (first compound 0.25 µM) it was 0.599; in test [2] (first compound 0.0025 µM), 0.963. Also, the relative viability stood at 1.03 in test [2] (first compound 0.007906 µM), 0.682 in test [2] (first compound 0.025 µM), 0.551 in test [2] (first compound 0.07906 µM) and 0.551 in test [2] (first compound 0.25 µM).

Take NCI-H1299: the relative viability with IDH-C35 + Lapatinib (first compound 0.08 µM) was 1.02; with IDH-C35 + Lapatinib (first compound 0.253 µM), 0.975; with IDH-C35 + Lapatinib (first compound 0.8 µM) it was 0.967; with IDH-C35 + Lapatinib (first compound 2.53 µM), 0.936; in the test with IDH-C35 + Lapatinib (first compound 8 µM), 0.898; with IDH-C35 + Alpelisib (first compound 0.08 µM), 1.06. The relative viability in the test with IDH-C35 + Alpelisib (first compound 0.253 µM) stood at 1.02; with IDH-C35 + Alpelisib (first compound 0.8 µM) it was 1.09; in the test with IDH-C35 + Alpelisib (first compound 2.53 µM) it was 1.05; with IDH-C35 + Alpelisib (first compound 8 µM), 1.04.

In the case of NCI-H1563, the relative viability with IDH-C35 + Lapatinib (first compound 0.08 µM) was 1.11; with IDH-C35 + Lapatinib (first compound 0.253 µM), 0.955; with IDH-C35 + Lapatinib (first compound 0.8 µM), 0.96; with IDH-C35 + Lapatinib (first compound 2.53 µM) it was 0.912; in the test with IDH-C35 + Lapatinib (first compound 8 µM), 1.09; with IDH-C35 + Alpelisib (first compound 0.08 µM), 0.947. For the same cell line, the relative viability was determined as 0.877 with IDH-C35 + Alpelisib (first compound 0.253 µM), 1.01 with IDH-C35 + Alpelisib (first compound 0.8 µM), 0.84 with IDH-C35 + Alpelisib (first compound 2.53 µM) and 0.925 with IDH-C35 + Alpelisib (first compound 8 µM).

As for NCI-H1648, the relative viability in test [1] (first compound 0.0025 µM) turned out to be 0.582; in test [1] (first compound 0.007906 µM), 0.529; in test [1] (first compound 0.025 µM) it was 0.5; in test [1] (first compound 0.07906 µM), 0.302; in test [1] (first compound 0.25 µM), 0.461; in test [2] (first compound 0.0025 µM) it was 0.787. Moreover, the relative viability in test [2] (first compound 0.007906 µM) is 0.413; in test [2] (first compound 0.025 µM) it was 0.42; in test [2] (first compound 0.07906 µM) it was 0.406; in test [2] (first compound 0.25 µM), 0.441.

As for NCI-H1650, the relative viability with IDH-C35 + Lapatinib (first compound 0.08 µM) stood at 0.785; with IDH-C35 + Lapatinib (first compound 0.253 µM) it was 0.835; in the test with IDH-C35 + Lapatinib (first compound 0.8 µM), 0.692; with IDH-C35 + Lapatinib (first compound 2.53 µM) it was 0.285; with IDH-C35 + Lapatinib (first compound 8 µM), 0.664; in test [1] (first compound 0.0025 µM) it was 0.365. Also, the relative viability in test [1] (first compound 0.007906 µM) was found to be 0.424; in test [1] (first compound 0.025 µM) it was 0.388; in test [1] (first compound 0.07906 µM) it was 0.292; in test [1] (first compound 0.25 µM) it was 0.309; in test [2] (first compound 0.0025 µM) it was 0.529; in test [2] (first compound 0.007906 µM), 0.583. Moreover, the relative viability in test [2] (first compound 0.025 µM) amounted to 0.49; in test [2] (first compound 0.07906 µM), 0.713; in test [2] (first compound 0.25 µM), 0.568.

Consider NCI-H1703, for which the relative viability with IDH-C35 + Lapatinib (first compound 0.08 µM) amounted to 1.06; in the test with IDH-C35 + Lapatinib (first compound 0.253 µM), 1.06; in the test with IDH-C35 + Lapatinib (first compound 0.8 µM) it was 0.866; with IDH-C35 + Lapatinib (first compound 2.53 µM) it was 0.831; with IDH-C35 + Lapatinib (first compound 8 µM), 1.1; with IDH-C35 + Alpelisib (first compound 0.08 µM) it was 0.379. The relative viability was determined as 0.372 with IDH-C35 + Alpelisib (first compound 0.253 µM), 0.405 with IDH-C35 + Alpelisib (first compound 0.8 µM), 0.343 with IDH-C35 + Alpelisib (first compound 2.53 µM) and 0.309 with IDH-C35 + Alpelisib (first compound 8 µM).

Regarding NCI-H1792, the relative viability in the test with IDH-C35 + Lapatinib (first compound 0.08 µM) was determined as 0.806; in the test with IDH-C35 + Lapatinib (first compound 0.253 µM) it was 0.893; with IDH-C35 + Lapatinib (first compound 0.8 µM), 0.87; with IDH-C35 + Lapatinib (first compound 2.53 µM), 0.98; with IDH-C35 + Lapatinib (first compound 8 µM), 0.973; with IDH-C35 + Alpelisib (first compound 0.08 µM) it was 0.655. The relative viability stood at 0.727 with IDH-C35 + Alpelisib (first compound 0.253 µM); 0.669 with IDH-C35 + Alpelisib (first compound 0.8 µM); 0.741 with IDH-C35 + Alpelisib (first compound 2.53 µM); 0.827 with IDH-C35 + Alpelisib (first compound 8 µM); 0.483 in test [1] (first compound 0.0025 µM); 0.489 in test [1] (first compound 0.007906 µM). For the same cell line, the results for the relative viability in test [1] (first compound 0.025 µM), in test [1] (first compound 0.07906 µM) and in test [1] (first compound 0.25 µM) were 0.408, 0.451 and 0.517, respectively.

For the cell line NCI-H2228, the relative viability with IDH-C35 + Lapatinib (first compound 0.08 µM) was 1.02; in the test with IDH-C35 + Lapatinib (first compound 0.253 µM), 0.984; with IDH-C35 + Lapatinib (first compound 0.8 µM), 0.925; in the test with IDH-C35 + Lapatinib (first compound 2.53 µM), 0.985; with IDH-C35 + Lapatinib (first compound 8 µM) it was 0.931; with IDH-C35 + Alpelisib (first compound 0.08 µM), 0.744. Further, the relative viability with IDH-C35 + Alpelisib (first compound 0.253 µM) turned out to be 0.722; with IDH-C35 + Alpelisib (first compound 0.8 µM) it was 0.735; with IDH-C35 + Alpelisib (first compound 2.53 µM), 0.779; with IDH-C35 + Alpelisib (first compound 8 µM) it was 0.74; in test [2] (first compound 0.0025 µM), 0.559; in test [2] (first compound 0.007906 µM), 0.811. The relative viability stood at 0.681 in test [2] (first compound 0.025 µM), 0.649 in test [2] (first compound 0.07906 µM) and 0.9 in test [2] (first compound 0.25 µM).

NCI-H2342: the relative viability in test [1] (first compound 0.0025 µM) is 0.74; in test [1] (first compound 0.007906 µM), 0.784; in test [1] (first compound 0.025 µM), 0.81; in test [1] (first compound 0.07906 µM) it was 0.693; in test [1] (first compound 0.25 µM) it was 0.799; in test [2] (first compound 0.0025 µM), 0.611. Moreover, the relative viability in test [2] (first compound 0.007906 µM) was found to be 0.766; in test [2] (first compound 0.025 µM), 0.709; in test [2] (first compound 0.07906 µM) it was 0.656; in test [2] (first compound 0.25 µM) it was 0.644.

Consider SW 900, for which the relative viability is 0.449 in test [1] (first compound 0.0025 µM); 0.405 in test [1] (first compound 0.007906 µM); 0.547 in test [1] (first compound 0.025 µM); 0.469 in test [1] (first compound 0.07906 µM); 0.412 in test [1] (first compound 0.25 µM); 0.558 in test [2] (first compound 0.0025 µM). For the same cell line, the relative viability in test [2] (first compound 0.007906 µM) was determined as 0.55; in test [2] (first compound 0.025 µM), 0.534; in test [2] (first compound 0.07906 µM), 0.504; in test [2] (first compound 0.25 µM), 0.445.
